For the test, the target named is T1, N-terminal HiBiT tagged BCL6 (Homo sapiens, UniProt P41182).
T1 construct: expressed in transfected cells; host or cells: HT1080 (ATCC CCL-121), stably transduced with lentivirus pLV-UBC-N-HiBiT-BCL6-PGK-puro
Nature of the test: HiBiT based degradation assay. The settings on record: HT1080 cells expressing N-terminal HiBiT tagged BCL6, 5 hours of incubation; for Ymin (5 hr): BCL6 degradation normalized with DMSO control; for DC50: four-parameter logistic model, read-out: EC50 (5 hr). The test is classed as cell-based. The essentials:
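Degradation measured by luminescence from the Nano-Glo HiBiT lytic reagent (15 min, room temperature), normalized to DMSO controls and fitted to a four-parameter curve.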

For the molecule `CNC(=O)COc1cc2cc(Nc3nc(N4CCN(CCC5CCN(c6cccc7c(C8CCC(=O)NC8=O)nn(C)c67)CC5)CC4)ncc3Cl)cnc2n(C)c1=O` (centres unmarked) [Compound 115, 2-((6-((5-chloro-2-(4-(2-(1-(3-(2,6-dioxopiperidin-3-yl)-1-methyl-1H-indazol-7-yl)piperidin-4-yl)ethyl)piperazin-1-yl)pyrimidin-4-yl)amino)-1-methyl-2-oxo-1,2-dihydro-1,8-naphthyridin-3-yl)oxy)-N-methylacetamide], the “Ymin (5 hr)” value is “+++ (30% ≤ Ymin < 50%)” and the DC50 was below 10 nM.
For the molecule `CNC(=O)COc1cc2cc(Nc3nc(N4CCC(Oc5ccc6c(C7CCC(=O)NC7=O)nn(C)c6c5)CC4)ncc3Cl)cnc2n(C)c1=O` (centres unmarked) [Compound 147, 2-((6-((5-chloro-2-(4-((3-(2,6-dioxopiperidin-3-yl)-1-methyl-1H-indazol-6-yl)oxy)piperidin-1-yl)pyrimidin-4-yl)amino)-1-methyl-2-oxo-1,2-dihydro-1,8-naphthyridin-3-yl)oxy)-N-methylacetamide], the “Ymin (5 hr)” value was “++++ (Ymin < 30%)” and the DC50 was below 10 nM.
In the same order, the values of `CNC(=O)COc1cc2cc(Nc3cc(N4CCC(CN5CCN(c6cccc7c(C8CCC(=O)NC8=O)nn(C)c67)[C@@H](C)C5)CC4)ncc3Cl)cnc2n(C(C)C)c1=O` (stereo partly drawn) [Compound 217b, 2-[[6-[[5-chloro-2-[4-[[(3S)-4-[3-(2,6-dioxo-3-piperidyl)-1-methyl-indazol-7-yl]-3-methyl-piperazin-1-yl]methyl]-1-piperidyl]-4-pyridyl]amino]-1-isopropyl-2-oxo-1,8-naphthyridin-3-yl]oxy]-N-methyl-acetamide] are “+ (Ymin ≥ 70%)” and at least 1000 nM.
In the same order, the values of `CNC(=O)COc1cc2cc(Nc3nc(N4CC[C@@H](CN5CCN(c6ccc7c(C8CCC(=O)NC8=O)nn(C)c7c6)CC5)[C@@H](C)C4)ncc3Cl)cnc2n(C(C)C)c1=O` (stereo partly drawn) [Compound 176c, 2-((6-((5-chloro-2-((3R,4R)-4-((4-(3-(2,6-dioxopiperidin-3-yl)-1-methyl-1H-indazol-6-yl)piperazin-1-yl)methyl)-3-methylpiperidin-1-yl)pyrimidin-4-yl)amino)-1-isopropyl-2-oxo-1,2-dihydro-1,8-naphthyridin-3-yl)oxy)-N-methylacetamide] are “+++ (30% ≤ Ymin < 50%)” and 10 to 100 nM.
In the same order, the values of `CNC(=O)COc1cc2cc(Nc3nc(N4CCC5(CCC(CN6CCC(c7ccc8c(C9CCC(=O)NC9=O)nn(C)c8c7F)CC6)CC5)CC4)ncc3Cl)cnc2n(C(C)C)c1=O` (centres unmarked) [Compound 240, 2-((6-((5-chloro-2-(9-((4-(3-(2,6-dioxopiperidin-3-yl)-7-fluoro-1-methyl-1H-indazol-6-yl)piperidin-1-yl)methyl)-3-azaspiro[5.5]undecan-3-yl)pyrimidin-4-yl)amino)-1-isopropyl-2-oxo-1,2-dihydro-1,8-naphthyridin-3-yl)oxy)-N-methylacetamide] are “++++ (Ymin < 30%)” and 10 to 100 nM.
For `CNC(=O)COc1cc2cc(Nc3nc(N4CCC(CN5CCN(c6cccc7c(C8CCC(=O)NC8=O)nn(C)c67)[C@H](C)C5)CC4)ncc3F)cnc2n(C(C)C)c1=O` (stereo partly drawn) [Compound 210b, 2-[[6-[[2-[4-[[(3R)-4-[3-(2,6-dioxo-3-piperidyl)-1-methyl-indazol-7-yl]-3-methyl-piperazin-1-yl]methyl]-1-piperidyl]-5-fluoro-pyrimidin-4-yl]amino]-1-isopropyl-2-oxo-1,8-naphthyridin-3-yl]oxy]-N-methyl-acetamide], the “Ymin (5 hr)” value is “++++ (Ymin < 30%)” and the DC50 was in the range of 10 to 100 nM.
In the same order, the values of `CNC(=O)COc1cc2cc(Nc3nc(N4CCN(C(=O)N5CCC(c6ccc7c(C8CCC(=O)NC8=O)nn(C)c7c6)CC5)CC4)ncc3Cl)cnc2n(C(C)C)c1=O` (centres unmarked) [Compound 220, 2-[[6-[[5-chloro-2-[4-[4-[3-(2,6-dioxo-3-piperidyl)-1-methyl-indazol-6-yl]piperidine-1-carbonyl]piperazin-1-yl]pyrimidin-4-yl]amino]-1-isopropyl-2-oxo-1,8-naphthyridin-3-yl]oxy]-N-methyl-acetamide] are “+++ (30% ≤ Ymin < 50%)” and below 10 nM.
In the same order, the values of `CNC(=O)COc1cc2cc(Nc3nc(N4CC5(CC[C@H](Nc6cccc7c(C8CCC(=O)NC8=O)nn(C)c67)[C@H](C)C5)C4)ncc3Cl)cnc2n(C)c1=O` (relative stereo) [Compound 159a, 2-((6-((5-chloro-2-((6R,7S)-7-((3-(2,6-dioxopiperidin-3-yl)-1-methyl-1H-indazol-7-yl)amino)-6-methyl-2-azaspiro[3.5]nonan-2-yl)pyrimidin-4-yl)amino)-1-methyl-2-oxo-1,2-dihydro-1,8-naphthyridin-3-yl)oxy)-N-methylacetamide] are “+++ (30% ≤ Ymin < 50%)” and below 10 nM.
`CNC(=O)COc1cc2cc(Nc3nc(N4CCC(CN5CCN(c6cccc7c(C8CCC(=O)NC8=O)nn(C)c67)[C@@H](C)C5)CC4)ncc3Cl)cnc2n(C(C)C)c1=O` (stereo partly drawn) [Compound 169a, 2-((6-((5-chloro-2-(4-(((3S)-4-(3-(2,6-dioxopiperidin-3-yl)-1-methyl-1H-indazol-7-yl)-3-methylpiperazin-1-yl)methyl)piperidin-1-yl)pyrimidin-4-yl)amino)-1-isopropyl-2-oxo-1,2-dihydro-1,8-naphthyridin-3-yl)oxy)-N-methylacetamide]: the “Ymin (5 hr)” value was “++++ (Ymin < 30%)” and the DC50 was below 10 nM.
In the same order, the values of `CNC(=O)COc1cc2cc(Nc3nc(N4CCC(CN5CCN(c6cccc7c(C8CCC(=O)NC8=O)nn(C)c67)C[C@@H]5CO)CC4)ncc3Cl)cnc2n(C(C)C)c1=O` (stereo partly drawn) [Compound 231b, 2-[[6-[[5-chloro-2-[4-[[(2R)-4-[3-(2,6-dioxo-3-piperidyl)-1-methyl-indazol-7-yl]-2-(hydroxymethyl)piperazin-1-yl]methyl]-1-piperidyl]pyrimidin-4-yl]amino]-1-isopropyl-2-oxo-1,8-naphthyridin-3-yl]oxy]-N-methyl-acetamide] are “++++ (Ymin < 30%)” and below 10 nM.
In the same order, the values of `CNC(=O)COc1cc2cc(Nc3nc(N4CC5(CC[C@H](Nc6ccc7c(C8CCC(=O)NC8=O)nn(C)c7c6)[C@@H](C(F)(F)F)C5)C4)ncc3Cl)cnc2n(C(C)C)c1=O` (relative stereo) [Compound 221b, rel-2-((6-((5-chloro-2-((6S,7S)-7-((3-(2,6-dioxopiperidin-3-yl)-1-methyl-1H-indazol-6-yl)amino)-6-(trifluoromethyl)-2-azaspiro[3.5]nonan-2-yl)pyrimidin-4-yl)amino)-1-isopropyl-2-oxo-1,2-dihydro-1,8-naphthyridin-3-yl)oxy)-N-methylacetamide] are “++++ (Ymin < 30%)” and below 10 nM.
In the same order, the values of `CNC(=O)COc1cc2cc(Nc3nc(N4CCN(CC5CCN(c6ccc7c(C8CCC(=O)NC8=O)nn(C)c7c6)CC5)C[C@@H]4CO)ncc3Cl)cnc2n(C(C)C)c1=O` (stereo partly drawn) [Compound 151a, 2-((6-((5-chloro-2-((2R)-4-((1-(3-(2,6-dioxopiperidin-3-yl)-1-methyl-1H-indazol-6-yl)piperidin-4-yl)methyl)-2-(hydroxymethyl)piperazin-1-yl)pyrimidin-4-yl)amino)-1-isopropyl-2-oxo-1,2-dihydro-1,8-naphthyridin-3-yl)oxy)-N-methylacetamide] are “+++ (30% ≤ Ymin < 50%)” and below 10 nM.
For `CNC(=O)COc1cc2cc(Nc3nc(N4CCC(CN5CCCN(c6cccc7c(C8CCC(=O)NC8=O)nn(C)c67)CC5)CC4)ncc3Cl)cnc2n(C(C)C)c1=O` (centres unmarked) [Compound 236, 2-[[6-[[5-chloro-2-[4-[[4-[3-(2,6-dioxo-3-piperidyl)-1-methyl-indazol-7-yl]-1,4-diazepan-1-yl]methyl]-1-piperidyl]pyrimidin-4-yl]amino]-1-isopropyl-2-oxo-1,8-naphthyridin-3-yl]oxy]-N-methyl-acetamide], the “Ymin (5 hr)” value was “+++ (30% ≤ Ymin < 50%)” and the DC50 was below 10 nM.
In the same order, the values of `CNC(=O)COc1cc2cc(Nc3nc(N4CCC(O)(CN5CCN(c6cccc7c(C8CCC(=O)NC8=O)nn(C)c67)CC5)CC4)ncc3Cl)cnc2n(C(C)C)c1=O` (centres unmarked) [Compound 178, 2-[[6-[[5-chloro-2-[4-[[4-[3-(2,6-dioxo-3-piperidyl)-1-methyl-indazol-7-yl]piperazin-1-yl]methyl]-4-hydroxy-1-piperidyl]pyrimidin-4-yl]amino]-1-isopropyl-2-oxo-1,8-naphthyridin-3-yl]oxy]-N-methyl-acetamide] are “+++ (30% ≤ Ymin < 50%)” and below 10 nM.
In the same order, the values of `CNC(=O)COc1cc2cc(Nc3nc(N4CC5(CC[C@@H](Nc6ccc7c(C8CCC(=O)NC8=O)nn(C)c7c6)[C@H](C)C5)C4)ncc3Cl)cnc2n(C(C)C)c1=O` (relative stereo) [Compound 180d, rel-2-((6-((5-chloro-2-((6R,7R)-7-((3-(2,6-dioxopiperidin-3-yl)-1-methyl-1H-indazol-6-yl)amino)-6-methyl-2-azaspiro[3.5]nonan-2-yl)pyrimidin-4-yl)amino)-1-isopropyl-2-oxo-1,2-dihydro-1,8-naphthyridin-3-yl)oxy)-N-methylacetamide] are “++++ (Ymin < 30%)” and below 10 nM.
In the same order, the values of `CNC(=O)COc1cc2cc(Nc3nc(N4CC[C@@H](CN5CCN(c6ccc7c(C8CCC(=O)NC8=O)nn(C)c7c6)CC5)C4)ncc3Cl)cnc2n(C(C)C)c1=O` (stereo partly drawn) [Compound 218a, 2-[[6-[[5-chloro-2-[(3S)-3-[[4-[3-(2,6-dioxo-3-piperidyl)-1-methyl-indazol-6-yl]piperazin-1-yl]methyl]pyrrolidin-1-yl]pyrimidin-4-yl]amino]-1-isopropyl-2-oxo-1,8-naphthyridin-3-yl]oxy]-N-methyl-acetamide] are “+++ (30% ≤ Ymin < 50%)” and below 10 nM.

The record behind these values is patent US20260241012A1, “1,8-NAPHTHYRIDIN-2-ONE HETEROBIFUNCTIONAL BCL6 DEGRADERS” (Treeline Biosciences, Inc., priority 2022, published 2026).
